Test results reported in US10806785B2, “Immunomodulator compounds and methods of use” (Incyte Corporation, priority 2016, dated 2020).

Target: PD-1/PD-L1 (Homo sapiens (Human), UniProt Q9NZQ7)
Experiment: PD-1/PD-L1 binding assay (HTRF)
How it was run: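 HTRF read-out (665/620 nm) after 60 min at 25 °C with 1 nM Eu anti-human IgG and 20 nM APC anti-His. Beforehand, inhibitors were preincubated 40 min with Fc-PD-1 (25-167, […] as listed) and His-PD-L1 (19-238, 10 nM) in PBS pH 7.4 with Tween-20, BSA, 1% DMSO; IC50 from log-concentration curve.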

Chain of PD-1/PD-L1 (Q9NZQ7 19-238): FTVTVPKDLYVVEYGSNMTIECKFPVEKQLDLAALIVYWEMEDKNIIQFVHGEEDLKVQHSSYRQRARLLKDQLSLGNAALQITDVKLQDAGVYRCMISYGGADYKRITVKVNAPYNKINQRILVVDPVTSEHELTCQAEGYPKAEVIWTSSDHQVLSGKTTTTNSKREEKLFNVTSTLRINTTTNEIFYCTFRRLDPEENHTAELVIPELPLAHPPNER

Row | Structure (SMILES) | IC50
1 | CC(=O)N1CCC(N2CCc3c(nc(C(=O)Nc4cccc(-c5cccc(NC(=O)c6nc7c(n6C)CCN(C)C7)c5Cl)c4C)n3C)C2)CC1 [Example 34, 5-(1-acetylpiperidin-4-yl)-N-(2′-chloro-3′-(1,5-dimethyl-4,5,6,7-tetrahydro-1H-imidazo[4,5-c]pyridine-2-carboxamido)-2-methylbiphenyl-3-yl)-1-methyl-4,5,6,7-tetrahydro-1H-imidazo[4,5-c]pyridine-2-carboxamide] | ≤ 10 nM
2 | Cc1c(NC(=O)c2nc3c(n2C)CCN(C2CCC(C)(C(=O)O)CC2)C3)cccc1-c1cccc(NC(=O)c2nc3c(n2C)CCN(C)C3)c1Cl (centres unmarked) [Example 35, 4-(2-(2′-chloro-3′-(1,5-dimethyl-4,5,6,7-tetrahydro-1H-imidazo[4,5-c]pyridine-2-carboxamido)-2-methylbiphenyl-3-ylcarbamoyl)-1-methyl-6,7-dihydro-1H-imidazo[4,5-c]pyridin-5(4H)-yl)-1-methylcyclohexanecarboxylic acid] | ≤ 10 nM
3 | Cc1c(NC(=O)c2nc3c(n2C)CCN(C[C@H](C)O)C3)cccc1-c1cccc(NC(=O)c2nc3c(n2C)CCNC3)c1Cl [Example 41, (S)—N-(2′-chloro-2-methyl-3′-(1-methyl-4,5,6,7-tetrahydro-1H-imidazo[4,5-c]pyridine-2-carboxamido)-[1,1′-biphenyl]-3-yl)-5-(2-hydroxypropyl)-1-methyl-4,5,6,7-tetrahydro-1H-imidazo[4,5-c]pyridine-2-carboxamide] | ≤ 10 nM
4 | Cc1c(NC(=O)c2nc3c(n2C)CCN(C[C@H](C)O)C3)cccc1-c1cccc(NC(=O)c2nc3c(n2C)CCN(C2CCN(S(C)(=O)=O)CC2)C3)c1Cl [Example 43, (S)—N-(2′-chloro-2-methyl-3′-(1-methyl-5-(1-(methylsulfonyl)piperidin-4-yl)-4,5,6,7-tetrahydro-1H-imidazo[4,5-c]pyridine-2-carboxamido)biphenyl-3-yl)-5-(2-hydroxypropyl)-1-methyl-4,5,6,7-tetrahydro-1H-imidazo[4,5-c]pyridine-2-carboxamide] | ≤ 10 nM
5 | Cc1c(NC(=O)c2nc3c(n2C)CCN(C[C@H](C)O)C3)cccc1-c1cccc(NC(=O)c2nc3c(n2C)CCN(C2CCC2)C3)c1Cl [Example 44, (S)—N-(2-chloro-3′-(5-(2-hydroxypropyl)-1-methyl-4,5,6,7-tetrahydro-1H-imidazo[4,5-c]pyridine-2-carboxamido)-2′-methylbiphenyl-3-yl)-5-cyclobutyl-1-methyl-4,5,6,7-tetrahydro-1H-imidazo[4,5-c]pyridine-2-carboxamide] | ≤ 10 nM
6 | Cc1c(NC(=O)c2nc3c(n2C)CCN(C[C@H](C)O)C3)cccc1-c1cccc(NC(=O)c2nc3c(n2C)CCN(CC2CC2)C3)c1Cl [Example 46, (S)—N-(2-chloro-3′-(5-(2-hydroxypropyl)-1-methyl-4,5,6,7-tetrahydro-1H-imidazo[4,5-c]pyridine-2-carboxamido)-2′-methylbiphenyl-3-yl)-5-(cyclopropylmethyl)-1-methyl-4,5,6,7-tetrahydro-1H-imidazo[4,5-c]pyridine-2-carboxamide] | ≤ 10 nM
7 | Cc1c(NC(=O)c2nc3c(n2C)CCN(C[C@H](C)O)C3)cccc1-c1cccc(NC(=O)c2nc3c(n2C)CCN(C2CCOCC2)C3)c1Cl [Example 47, (S)—N-(2′-chloro-2-methyl-3′-(1-methyl-5-(tetrahydro-2H-pyran-4-yl)-4,5,6,7-tetrahydro-1H-imidazo[4,5-c]pyridine-2-carboxamido)biphenyl-3-yl)-5-(2-hydroxypropyl)-1-methyl-4,5,6,7-tetrahydro-1H-imidazo[4,5-c]pyridine-2-carboxamide] | ≤ 10 nM
8 | Cc1c(NC(=O)c2cc(CN3CC[C@@H](O)C3)cn(C)c2=O)cccc1-c1cccc(NC(=O)c2nc3c(n2C)CCN(C)C3)c1Cl [Example 48, (R)—N-(2-chloro-3′-(5-((3-hydroxypyrrolidin-1-yl)methyl)-1-methyl-2-oxo-1,2-dihydropyridine-3-carboxamido)-2′-methylbiphenyl-3-yl)-1,5-dimethyl-4,5,6,7-tetrahydro-1H-imidazo[4,5-c]pyridine-2-carboxamide] | ≤ 10 nM

The next lines start with the values.

Row | IC50 | Structure (SMILES)
9 | ≤ 10 nM | Cc1c(NC(=O)c2nc3c(n2C)CCN(CCCNS(C)(=O)=O)C3)cccc1-c1cccc(NC(=O)c2nc3c(n2C)CCN(C)C3)c1Cl [Example 36, N-(2-chloro-2′-methyl-3′-(1-methyl-5-(3-(methylsulfonamido)propyl)-4,5,6,7-tetrahydro-1H-imidazo[4,5-c]pyridine-2-carboxamido)biphenyl-3-yl)-1,5-dimethyl-4,5,6,7-tetrahydro-1H-imidazo[4,5-c]pyridine-2-carboxamide]
10 | ≤ 10 nM | CN1CCc2c(nc(C(=O)Nc3cccc(-c4cccc(NC(=O)c5nc6c(n5C)CCN(CCO)C6)c4Cl)c3C#N)n2C)C1 [Example 38, N-(2-chloro-2′-cyano-3′-(1,5-dimethyl-4,5,6,7-tetrahydro-1H-imidazo[4,5-c]pyridine-2-carboxamido)biphenyl-3-yl)-5-(2-hydroxyethyl)-1-methyl-4,5,6,7-tetrahydro-1H-imidazo[4,5-c]pyridine-2-carboxamide]
11 | ≤ 10 nM | C[C@H](O)CN1CCc2c(nc(C(=O)Nc3cccc(-c4cccc(NC(=O)c5nc6c(n5C)CCN(C)C6)c4C#N)c3Cl)n2C)C1 [Example 39, (S)—N-(2-chloro-2′-cyano-3′-(1,5-dimethyl-4,5,6,7-tetrahydro-1H-imidazo[4,5-c]pyridine-2-carboxamido)biphenyl-3-yl)-5-(2-hydroxypropyl)-1-methyl-4,5,6,7-tetrahydro-1H-imidazo[4,5-c]pyridine-2-carboxamide]
12 | ≤ 10 nM | C[C@@H](O)CN1CCc2c(nc(C(=O)Nc3cccc(-c4cccc(NC(=O)c5nc6c(n5C)CCN(C)C6)c4C#N)c3Cl)n2C)C1 [Example 40, (R)—N-(2-chloro-2′-cyano-3′-(1,5-dimethyl-4,5,6,7-tetrahydro-1H-imidazo[4,5-c]pyridine-2-carboxamido)biphenyl-3-yl)-5-(2-hydroxypropyl)-1-methyl-4,5,6,7-tetrahydro-1H-imidazo[4,5-c]pyridine-2-carboxamide]
13 | ≤ 10 nM | Cc1c(NC(=O)c2nc3c(n2C)CCN(C[C@H](C)O)C3)cccc1-c1cccc(NC(=O)c2nc3c(n2C)CCN(CCO)C3)c1Cl [Example 42, (S)—N-(2′-chloro-3′-(5-(2-hydroxyethyl)-1-methyl-4,5,6,7-tetrahydro-1H-imidazo[4,5-c]pyridine-2-carboxamido)-2-methylbiphenyl-3-yl)-5-(2-hydroxypropyl)-1-methyl-4,5,6,7-tetrahydro-1H-imidazo[4,5-c]pyridine-2-carboxamide]
14 | ≤ 10 nM | Cc1c(NC(=O)c2nc3c(n2C)CCN(C[C@H](C)O)C3)cccc1-c1cccc(NC(=O)c2nc3c(n2C)CCN(C(C)C)C3)c1Cl [Example 45, (S)—N-(2-chloro-3′-(5-(2-hydroxypropyl)-1-methyl-4,5,6,7-tetrahydro-1H-imidazo[4,5-c]pyridine-2-carboxamido)-2′-methylbiphenyl-3-yl)-5-isopropyl-1-methyl-4,5,6,7-tetrahydro-1H-imidazo[4,5-c]pyridine-2-carboxamide]
